Counter-ions that a name gives are not always drawn.
Columns and labels:
αvβ1 = αvβ1 (Homo sapiens, UniProt P05556+P06756); experiment: Solid Phase Integrin αvβ1 Assay; assay type: binding
Procedure, shortened: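 Compound competes for αvβ1 binding to immobilized TGFb1-LAP (1 µg/mL coat) in Mn2+ (1 mM MnCl2), 2% BSA binding buffer over 90 min at room temperature, integrin added at 0.2 µg/mL. Read-out: streptavidin-HRP/TMB; IC50 from Levenberg-Marquardt four-parameter fit.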

αvβ6 = αvβ6 (Homo sapiens, UniProt P06756+P18564); experiment: Solid Phase Integrin αvβ6 Assay; assay type: binding
Procedure, shortened: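 Inhibition of αvβ6 binding to immobilized recombinant TGFb1-LAP (1 μg/mL coating), 1 h at room temperature with 1 mM MnCl2 in BSA/TBST buffer, integrin diluted to 0.2 μg/mL before addition. Streptavidin-HRP/TMB read-out; four-parameter logistic fitting gave IC50.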

Sequence of αvβ1 (P06756 31-992 limits assumed): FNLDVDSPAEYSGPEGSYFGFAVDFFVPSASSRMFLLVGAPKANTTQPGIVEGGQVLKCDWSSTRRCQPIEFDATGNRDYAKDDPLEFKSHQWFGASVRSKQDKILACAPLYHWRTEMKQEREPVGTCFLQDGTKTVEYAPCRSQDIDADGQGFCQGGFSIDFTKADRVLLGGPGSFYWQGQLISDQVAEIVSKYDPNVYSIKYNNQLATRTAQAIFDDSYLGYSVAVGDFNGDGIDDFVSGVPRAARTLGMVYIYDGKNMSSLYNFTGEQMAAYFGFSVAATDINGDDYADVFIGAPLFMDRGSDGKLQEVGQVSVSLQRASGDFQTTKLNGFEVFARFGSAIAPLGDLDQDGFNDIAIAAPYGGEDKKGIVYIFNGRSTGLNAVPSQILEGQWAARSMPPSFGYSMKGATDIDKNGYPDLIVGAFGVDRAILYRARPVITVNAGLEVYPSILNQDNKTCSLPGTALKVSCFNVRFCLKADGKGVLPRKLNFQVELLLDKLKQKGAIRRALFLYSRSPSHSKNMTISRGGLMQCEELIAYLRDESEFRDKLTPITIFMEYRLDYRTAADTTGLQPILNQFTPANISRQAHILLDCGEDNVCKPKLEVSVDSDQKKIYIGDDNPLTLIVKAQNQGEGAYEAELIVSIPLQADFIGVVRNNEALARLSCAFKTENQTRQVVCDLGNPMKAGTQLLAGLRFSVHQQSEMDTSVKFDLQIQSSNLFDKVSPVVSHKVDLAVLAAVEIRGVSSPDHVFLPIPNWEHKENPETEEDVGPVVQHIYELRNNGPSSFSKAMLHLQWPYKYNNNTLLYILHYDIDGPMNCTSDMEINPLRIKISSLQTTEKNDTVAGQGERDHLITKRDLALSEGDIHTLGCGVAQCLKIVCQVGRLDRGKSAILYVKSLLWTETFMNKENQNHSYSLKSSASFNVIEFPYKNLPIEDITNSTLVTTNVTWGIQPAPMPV
Sequence of αvβ1 (P05556 21-728 limits assumed): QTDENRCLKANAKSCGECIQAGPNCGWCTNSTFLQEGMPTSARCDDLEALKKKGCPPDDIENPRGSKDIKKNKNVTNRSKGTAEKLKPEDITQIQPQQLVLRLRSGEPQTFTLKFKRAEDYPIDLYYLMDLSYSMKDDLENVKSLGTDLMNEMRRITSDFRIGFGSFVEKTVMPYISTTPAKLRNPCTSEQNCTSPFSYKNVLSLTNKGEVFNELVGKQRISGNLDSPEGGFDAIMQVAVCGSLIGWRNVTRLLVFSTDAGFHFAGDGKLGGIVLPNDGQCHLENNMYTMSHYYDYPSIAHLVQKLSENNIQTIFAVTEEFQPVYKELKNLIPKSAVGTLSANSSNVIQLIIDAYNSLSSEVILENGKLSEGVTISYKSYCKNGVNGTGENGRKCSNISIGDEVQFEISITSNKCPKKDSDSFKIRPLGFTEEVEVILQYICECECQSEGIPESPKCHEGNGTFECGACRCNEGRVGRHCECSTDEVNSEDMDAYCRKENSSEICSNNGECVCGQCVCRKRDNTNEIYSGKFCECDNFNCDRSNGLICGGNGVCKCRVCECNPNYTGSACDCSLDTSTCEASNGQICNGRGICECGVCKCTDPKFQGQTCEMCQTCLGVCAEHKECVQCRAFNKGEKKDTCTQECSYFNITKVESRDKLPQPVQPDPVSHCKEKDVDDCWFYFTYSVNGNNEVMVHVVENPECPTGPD
Sequence of αvβ6 (P06756 31-992 limits assumed): as the sequence (P06756 31-992 limits assumed) above
Sequence of αvβ6 (P18564 22-707 limits assumed): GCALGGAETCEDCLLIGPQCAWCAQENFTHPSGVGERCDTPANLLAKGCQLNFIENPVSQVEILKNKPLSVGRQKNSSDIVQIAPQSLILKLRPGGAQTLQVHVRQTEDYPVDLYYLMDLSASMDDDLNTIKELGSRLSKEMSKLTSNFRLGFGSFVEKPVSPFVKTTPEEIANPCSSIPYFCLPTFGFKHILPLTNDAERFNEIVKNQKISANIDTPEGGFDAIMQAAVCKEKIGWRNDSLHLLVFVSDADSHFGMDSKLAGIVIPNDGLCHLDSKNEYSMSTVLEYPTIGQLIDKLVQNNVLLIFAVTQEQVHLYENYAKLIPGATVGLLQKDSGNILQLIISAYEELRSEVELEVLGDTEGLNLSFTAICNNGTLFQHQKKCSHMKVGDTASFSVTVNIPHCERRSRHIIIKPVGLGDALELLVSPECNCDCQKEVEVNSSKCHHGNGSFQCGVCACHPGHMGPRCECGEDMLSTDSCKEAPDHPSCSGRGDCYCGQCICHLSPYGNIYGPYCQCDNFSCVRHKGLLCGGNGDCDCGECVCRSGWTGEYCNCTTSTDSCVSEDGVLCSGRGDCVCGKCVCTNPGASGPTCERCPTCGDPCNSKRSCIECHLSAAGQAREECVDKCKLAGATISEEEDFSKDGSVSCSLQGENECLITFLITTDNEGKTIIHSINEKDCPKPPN

| SMILES | IC50 (αvβ1) [µM] | IC50 (αvβ6) [µM] |
| --- | --- | --- |
| O=C(O)C[C@H](NC(=O)[C@H]1CCCN(C(=O)CCc2ccc3c(n2)NCCC3)C1)c1ccccc1 [Compound 286, (S)-3-phenyl-3-((S)-1-(3-(5,6,7,8-tetrahydro-1,8-naphthyridin-2-yl)propanoyl)piperidine-3-carboxamido)propanoic acid hydrochloride] | > 1 | > 1 |
| O=C(O)C[C@H](NC(=O)[C@H]1CCCN(CCCCc2ccc3c(n2)NCCC3)C1)c1ccccc1 [Compound 287, (S)-3-phenyl-3-((S)-1-(4-(5,6,7,8-tetrahydro-1,8-naphthyridin-2-yl)butyl)piperidine-3-carboxamido)propanoic acid] | > 1 | > 1 |
| O=C(O)C[C@H](NC(=O)[C@@H]1CCCN(CCCCc2ccc3c(n2)NCCC3)C1)c1ccccc1 [Compound 288, (S)-3-phenyl-3-((R)-1-(4-(5,6,7,8-tetrahydro-1,8-naphthyridin-2-yl)butyl)piperidine-3-carboxamido)propanoic acid hydrochloride] | 0.1 to 1 | < 0.1 |
| O=C(O)C[C@H](NC(=O)[C@@H]1CCCN(C(=O)CCc2ccc3c(n2)NCCC3)C1)c1ccccc1 [Compound 289, (S)-3-phenyl-3-((R)-1-(3-(5,6,7,8-tetrahydro-1,8-naphthyridin-2-yl)propanoyl)piperidine-3-carboxamido)propanoic acid hydrochloride] | 0.1 to 1 | 0.1 to 1 |
| O=C(O)C[C@H](NC(=O)[C@@H]1CCCN(CCc2ccc3c(n2)NCCC3)C1)c1ccccc1 [Compound 290, (S)-3-phenyl-3-((R)-1-(2-(5,6,7,8-tetrahydro-1,8-naphthyridin-2-yl)ethyl)piperidine-3-carboxamido)propanoic acid] | > 1 | 0.1 to 1 |
| O=C(O)C[C@H](NC(=O)[C@@H]1CN(CCCc2ccc3c(n2)NCCC3)CC(F)(F)C1)c1ccccc1 [Compound 291-A, (3S)-3-(5,5-difluoro-1-(3-(5,6,7,8-tetrahydro-1,8-naphthyridin-2-yl)propyl)piperidine-3-carboxamido)-3-phenylpropanoic acid] | 0.1 to 1 | < 0.1 |
| O=C(O)C[C@H](NC(=O)[C@H]1CN(CCCc2ccc3c(n2)NCCC3)CC(F)(F)C1)c1ccccc1 [Compound 291-B, (3S)-3-(5,5-difluoro-1-(3-(5,6,7,8-tetrahydro-1,8-naphthyridin-2-yl)propyl)piperidine-3-carboxamido)-3-phenylpropanoic acid] | 0.1 to 1 | 0.1 to 1 |
| O=C(O)C[C@H](NC[C@@H]1CCCN(CCCc2ccc3c(n2)NCCC3)C1)c1ccccc1 [Compound 292, (S)-3-phenyl-3-(S)-1-(3-(5,6,7,8-tetrahydro-1,8-naphthyridin-2-yl)propyl)piperidin-3-yl)methyl)amino)propanoic acid hydrochloride] | > 1 | > 1 |
| CN(C[C@@H]1CCCN(CCCc2ccc3c(n2)NCCC3)C1)[C@@H](CC(=O)O)c1ccccc1 [Compound 293, (S)-3-(methyl(((R)-1-(3-(5,6,7,8-tetrahydro-1,8-naphthyridin-2-yl)propyl)piperidin-3-yl)methyl)amino)-3-phenylpropanoic acid hydrochloride] | > 1 | > 1 |
| O=C(O)C[C@H](OC[C@@H]1CCCN(CCCc2ccc3c(n2)NCCC3)C1)c1ccccc1 [Compound 294, (S)-3-phenyl-3-(((R)-1-(3-(5,6,7,8-tetrahydro-1,8-naphthyridin-2-yl)propyl)piperidin-3-yl)methoxy)propanoic acid] | > 1 | > 1 |
| O=C(O)C[C@H](CN[C@@H]1CCCN(CCCc2ccc3c(n2)NCCC3)C1)c1ccccc1 [Compound 295, (S)-3-phenyl-4-(((R)-1-(3-(5,6,7,8-tetrahydro-1,8-naphthyridin-2-yl)propyl)piperidin-3-yl)amino)butanoic acid] | < 0.1 | < 0.1 |
| CN(C[C@@H](CC(=O)O)c1ccccc1)[C@@H]1CCCN(CCCc2ccc3c(n2)NCCC3)C1 [Compound 296, (S)-4-(methyl((R)-1-(3-(5,6,7,8-tetrahydro-1,8-naphthyridin-2-yl)propyl)piperidin-3-yl)amino)-3-phenylbutanoic acid] | 0.1 to 1 | > 1 |
| O=C(O)CC(CO[C@@H]1CCCN(CCCc2ccc3c(n2)NCCC3)C1)c1ccccc1 (stereo partly drawn) [Compound 297, 3-phenyl-4-(((R)-1-(3-(5,6,7,8-tetrahydro-1,8-naphthyridin-2-yl)propyl)piperidin-3-yl)oxy)butanoic acid hydrochloride] | < 0.1 | < 0.1 |
| O=C(O)C[C@H](CO[C@@H]1CCCN(CCCc2ccc3c(n2)NCCC3)C1)c1ccccc1 [Compound 297-A, 3-phenyl-4-(((R)-1-(3-(5,6,7,8-tetrahydro-1,8-naphthyridin-2-yl)propyl)piperidin-3-yl)oxy)butanoic acid] | 0.1 to 1 | 0.1 to 1 |
| O=C(O)C[C@@H](CO[C@@H]1CCCN(CCCc2ccc3c(n2)NCCC3)C1)c1ccccc1 [Compound 297-B, 3-phenyl-4-(((R)-1-(3-(5,6,7,8-tetrahydro-1,8-naphthyridin-2-yl)propyl)piperidin-3-yl)oxy)butanoic acid] | < 0.1 | < 0.1 |
| O=C(O)C[C@@H](CC[C@@H]1CCCN(CCCc2ccc3c(n2)NCCC3)C1)c1ccccc1 [Compound 298-A, 3-phenyl-5-((R)-1-(3-(5,6,7,8-tetrahydro-1,8-naphthyridin-2-yl)propyl)piperidin-3-yl)pentanoi c acid] | < 0.1 | 0.1 to 1 |
| O=C(O)C[C@H](CC[C@@H]1CCCN(CCCc2ccc3c(n2)NCCC3)C1)c1ccccc1 [Compound 298-B, 3-phenyl-5-((R)-1-(3-(5,6,7,8-tetrahydro-1,8-naphthyridin-2-yl)propyl)piperidin-3-yl)pentanoi c acid] | < 0.1 | < 0.1 |
| O=C(O)C[C@H](C(=O)N[C@@H]1CCCN(CCCc2ccc3c(n2)NCCC3)C1)c1ccccc1 [Compound 299, (S)-4-oxo-3-phenyl-4-(((R)-1-(3-(5,6,7,8-tetrahydro-1,8-naphthyridin-2-yl)propyl)piperidin-3-yl)amino)butanoic acid] | > 1 | > 1 |
| O=C(NC1([C@H](C(=O)O)c2cccc(-c3ccccc3)c2)CC1)[C@@H]1CCCN(CCCc2ccc3c(n2)NCCC3)C1 [Compound 301-A, 2-([1,1′-biphenyl]-3-yl)-2-(1-((R)-1-(3-(5,6,7,8-tetrahydro-1,8-naphthyridin-2-yl)propyl)piperidine-3-carboxamido)cyclopropyl)acetic acid] | > 1 | > 1 |
| O=C(NC1([C@@H](C(=O)O)c2cccc(-c3ccccc3)c2)CC1)[C@@H]1CCCN(CCCc2ccc3c(n2)NCCC3)C1 [Compound 301-B, 2-([1,1′-biphenyl]-3-yl)-2-(1-((R)-1-(3-(5,6,7,8-tetrahydro-1,8-naphthyridin-2-yl)propyl)piperidine-3-carboxamido)cyclopropyl)acetic acid] | > 1 | > 1 |
| O=C(NC[C@@H](C(=O)O)c1cccc(Br)c1)[C@@H]1CCCN(CCCc2ccc3c(n2)NCCC3)C1 [Compound 302] | < 0.1 | < 0.1 |
| O=C(NC[C@H](C(=O)O)c1cccc(Br)c1)[C@@H]1CCCN(CCCc2ccc3c(n2)NCCC3)C1 [Compound 303] | < 0.1 | < 0.1 |

— US20240208968A1, “ALPHA V BETA 6 AND ALPHA V BETA 1 INTEGRIN INHIBITORS AND USES THEREOF” (DiCE Molecules SV, Inc., priority 2021, published 2024)
